In PubChem BioAssay (NCI) one finds GI50 and TGI data, which are given here for eleven molecules.

Among the test systems are SF-295 CNS; K-562 leukemia; IGROV1 ovarian; OVCAR-8 ovarian; OVCAR-4 ovarian; SF-539 CNS; HCT-116 colon; NCI-H23 lung; SW-620 colon; A498 renal.
What all share (assay): DTP human tumour cell line panel, 48 h

The structures appear in SMILES notation.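 Following 48 hours of exposure in 96-well plates, responses at five concentrations were used to interpolate endpoints linearly. GI50 is the concentration that inhibits growth by half. Definition used: TGI = concentration required for complete inhibition of growth.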

As for `COc1ccc(-c2cnc(-c3ccncc3-c3cccc(OC)c3)o2)cc1`, the GI50 (commonly the concentration that inhibits growth by half) is 0.0294 µM in the assay on SF-295 CNS; 0.0288 µM in the assay with K-562 leukemia; 0.0754 µM with IGROV1 ovarian; 0.0484 µM in the assay with OVCAR-8 ovarian; 0.677 µM in the assay with OVCAR-4 ovarian; 0.0268 µM with SF-539 CNS. Also, the GI50 is 0.0375 µM with HCT-116 colon, 0.0383 µM in the assay with NCI-H23 lung and 0.0383 µM in the assay on SW-620 colon. The TGI (usually the concentration giving total growth inhibition) is 13.8 µM with SF-295 CNS; 12.8 µM with K-562 leukemia; 18.4 µM in the assay with IGROV1 ovarian; 15.3 µM in the assay on OVCAR-8 ovarian; 29.2 µM with OVCAR-4 ovarian; 0.0776 µM in the assay with SF-539 CNS. For the same molecule, the TGI with HCT-116 colon was found to be 11.8 µM; in the assay with NCI-H23 lung it was 13 µM; in the assay on SW-620 colon, 19.3 µM.

On to `C=C1C(=O)O[C@@H]2C[C@@]3(C)[C@H](O)CCC(=C)[C@@H]3C[C@H]12`, for which the TGI in the assay on SF-295 CNS was 27.2 µM; in the assay with K-562 leukemia, 10.2 µM; with IGROV1 ovarian, 45.2 µM; with OVCAR-8 ovarian, 23.3 µM; in the assay on OVCAR-4 ovarian, 26.7 µM; in the assay on SF-539 CNS, 23.6 µM. Besides, the TGI amounted to 18.5 µM with HCT-116 colon, 25.5 µM with NCI-H23 lung and 11.7 µM with SW-620 colon.

As for `C[C@]12CCc3nc(Nc4ccc(O)cc4)sc3C1=CC[C@@H]1[C@@H]2CC[C@]2(C)/C(=N/NC(N)=S)CC[C@@H]12`, the GI50 was 1.57 µM in the assay on SF-295 CNS; 1.45 µM in the assay on IGROV1 ovarian; 1.74 µM with OVCAR-8 ovarian; 1.6 µM in the assay with OVCAR-4 ovarian; 1.49 µM in the assay with SF-539 CNS; 2.09 µM with A498 renal. Also, the GI50 was 1.15 µM in the assay on HCT-116 colon, 1.8 µM with NCI-H23 lung and 1.29 µM in the assay on SW-620 colon. Moreover, the TGI in the assay with SF-295 CNS stood at 3.48 µM; in the assay with IGROV1 ovarian, 3 µM; in the assay with OVCAR-8 ovarian it was 4.55 µM; in the assay on OVCAR-4 ovarian, 3.43 µM; in the assay on SF-539 CNS, 3.09 µM; with A498 renal it was 4.9 µM. Moreover, the concentration for total growth inhibition (TGI) was 2.57 µM with HCT-116 colon, 4.36 µM in the assay on NCI-H23 lung and 3.26 µM with SW-620 colon.

On to `CCOC(=O)c1cc(C(=O)c2ccc(OC)c(OC)c2)n2c1ccc1ccc3cccnc3c12`, for which the GI50 is 2.33 µM in the assay with IGROV1 ovarian; 3.73 µM with OVCAR-8 ovarian; 5.17 µM in the assay with OVCAR-4 ovarian; 2.82 µM in the assay with A498 renal; 0.619 µM in the assay on HCT-116 colon; 4 µM with NCI-H23 lung. In addition, the GI50 with SW-620 colon is 0.93 µM. In addition, the TGI with IGROV1 ovarian, in the assay with OVCAR-8 ovarian, with OVCAR-4 ovarian, in the assay on A498 renal, in the assay with HCT-116 colon and in the assay with NCI-H23 lung was more than 100 µM in each case. The molecule also came in with a TGI in the assay with SW-620 colon of more than 100 µM.

Regarding `CC(C)(C)OC(=O)N[C@H]1CC(=O)c2ccccc2N(CC(=O)O)C1=O`, the TGI in the assay on SF-295 CNS is more than 100 µM; with IGROV1 ovarian it was more than 100 µM; in the assay with OVCAR-8 ovarian, more than 100 µM; in the assay with OVCAR-4 ovarian, more than 100 µM; in the assay on SF-539 CNS, more than 100 µM; in the assay on HCT-116 colon it was 75 µM. Besides, the TGI with NCI-H23 lung and with SW-620 colon was more than 100 µM each time.

As to `CC(C)(C)C1=NO[C@H]2[C@@H](NC(=O)c3ccccc3)CC[C@@H]12`, the TGI in the assay on SF-295 CNS, in the assay on K-562 leukemia, in the assay with IGROV1 ovarian, in the assay on OVCAR-8 ovarian, in the assay on OVCAR-4 ovarian and in the assay with SF-539 CNS was more than 100 µM throughout. Also, the TGI in the assay on HCT-116 colon, in the assay with NCI-H23 lung and with SW-620 colon was more than 100 µM each time.

As for `COc1cc([C@@H]2c3cc4c(cc3[C@H](SC(=N)N)[C@H]3COC(=O)[C@H]23)OCO4)cc(OC)c1OC`, the GI50 in the assay with SF-295 CNS was 0.0369 µM; in the assay with K-562 leukemia, 0.14 µM; in the assay on IGROV1 ovarian, 0.227 µM; with OVCAR-8 ovarian, 0.348 µM; in the assay with OVCAR-4 ovarian, 0.683 µM; in the assay on SF-539 CNS, 0.144 µM. Also, the figures for the GI50 in the assay on HCT-116 colon, in the assay with NCI-H23 lung and in the assay on SW-620 colon were 0.197 µM, 0.299 µM and 0.265 µM, respectively. Besides, the TGI in the assay on SF-295 CNS is 0.19 µM; in the assay with K-562 leukemia, more than 100 µM; with IGROV1 ovarian, 4.66 µM; in the assay with OVCAR-8 ovarian it was more than 100 µM; in the assay with OVCAR-4 ovarian, more than 100 µM; with SF-539 CNS, more than 100 µM. Also, the TGI in the assay with HCT-116 colon, with NCI-H23 lung and in the assay on SW-620 colon was more than 100 µM in each case.

On to `N#Cc1c(-c2ccccc2)c(-c2ccccc2)cc2c(=O)c3ccc(Cl)cc3[nH]c12`, for which the TGI with SF-295 CNS, in the assay on IGROV1 ovarian, with OVCAR-8 ovarian, in the assay on SF-539 CNS, in the assay with HCT-116 colon and with NCI-H23 lung was more than 100 µM in each case. Moreover, in the assay on SW-620 colon, the TGI is more than 100 µM.

In the case of `Nc1nc(Cl)c2ncn(Cc3ccc(C45CC6CC(CC(C6)C4)C5)c(OCc4cc(F)c(F)cc4F)c3)c2n1`, the GI50 with SF-295 CNS is 3.44 µM; in the assay on IGROV1 ovarian, 2.77 µM; in the assay on OVCAR-8 ovarian it was 2.94 µM; in the assay with OVCAR-4 ovarian, 6.08 µM; in the assay with SF-539 CNS, 4.18 µM; in the assay on A498 renal it was 8.78 µM. Further, the results for the GI50 in the assay with HCT-116 colon and in the assay on SW-620 colon were 1.03 µM and 2.14 µM, respectively. Also, the TGI in the assay with SF-295 CNS is 17.1 µM; with IGROV1 ovarian it was 13.8 µM; in the assay on OVCAR-8 ovarian, 14.2 µM; with OVCAR-4 ovarian it was more than 100 µM; in the assay on SF-539 CNS, 14.8 µM; with A498 renal, 22.8 µM. Moreover, the TGI in the assay with HCT-116 colon came to 2.2 µM; in the assay on SW-620 colon, 20.5 µM.

For `O=c1[nH]c2ccccc2cc1-c1nnc(Cc2ccccc2)o1`, the GI50 in the assay with SF-295 CNS is 11.2 µM; in the assay on K-562 leukemia, 3.29 µM; in the assay with IGROV1 ovarian, 5.2 µM; in the assay on OVCAR-4 ovarian, 4.23 µM; in the assay on A498 renal, 13.3 µM; in the assay with HCT-116 colon, 1.41 µM. Besides, the values for the GI50 in the assay on NCI-H23 lung and in the assay with SW-620 colon were 11.3 µM and 1.87 µM, respectively. Moreover, the TGI is 32.2 µM in the assay with SF-295 CNS; 14.4 µM with K-562 leukemia; 27.1 µM in the assay on IGROV1 ovarian; 18.3 µM with OVCAR-4 ovarian; 27.1 µM with A498 renal; 3.1 µM with HCT-116 colon. The TGI in the assay on NCI-H23 lung came out at 39.5 µM; in the assay with SW-620 colon it was 4.16 µM.

As for `O=C1C=CC2(O)OCC3C=C4O[C@@H]5OC6(CCCCC6)O[C@@H]5C4[C@@H]2[C@@H]13` (some centres not stated), the TGI in the assay with SF-295 CNS is more than 100 µM; with K-562 leukemia, 44.8 µM; with IGROV1 ovarian, more than 100 µM; in the assay with OVCAR-8 ovarian it was 77.2 µM; with OVCAR-4 ovarian, 59.9 µM; in the assay on A498 renal, more than 100 µM. The TGI with HCT-116 colon was determined as 32.1 µM; with NCI-H23 lung, 67.3 µM; with SW-620 colon it was 71.4 µM.
